Test results published in US20020055528A1, “Artemisinin analogs having antimalarial, antiproliferative, and antitumor activities and chemoselective methods of making the same” (priority 1999, published 2002).
Read-outs that look alike come from different tables or passages of the source.

Legend:
MDA-MB231/ATCC = experiment: NCI 60 cell line screen (SRB), Breast Cancer; assay type: cell-based; details: MDA- (first line of MDA-MB231/ATCC); PG=0
MDA-MB-435 = experiment: NCI 60 cell line screen (SRB), Breast Cancer; assay type: cell-based
SNB-19 = experiment: NCI 60 cell line screen (SRB), CNS Cancer; assay type: cell-based; details: PG=0
A498 = experiment: NCI 60 cell line screen (SRB), Renal Cancer; assay type: cell-based
NCI-H322M = experiment: NCI 60 cell line screen (SRB), Non-Small Cell Lung Cancer; assay type: cell-based; details: for Log10GI50: PG=+50
NCI-H23 = experiment: as above; assay type: cell-based; details: PG=0
UACC-62 = experiment: NCI 60 cell line screen (SRB), Melanoma; assay type: cell-based; details: for Log10TGI: PG=0
SN12C = experiment: NCI 60 cell line screen (SRB), Renal Cancer; assay type: cell-based
MCF7 = experiment: NCI 60 cell line screen (SRB), Breast Cancer; assay type: cell-based
K-562 = experiment: NCI 60 cell line screen (SRB), Leukemia; assay type: cell-based; details: for Log10TGI: PG=0
SW-620 = experiment: NCI 60 cell line screen (SRB), Colon Cancer; assay type: cell-based; details: for Log10TGI: PG=0
SK-MEL2 = experiment: NCI 60 cell line screen (SRB), Melanoma; assay type: cell-based; details: PG=0
SR = experiment: NCI 60 cell line screen (SRB), Leukemia; assay type: cell-based
60 cell line panel = experiment: NCI 60 cell line screen (SRB), whole panel; assay type: cell-based; details: panel summary
Experimental: (§1) The screening assay is performed on 96-well microtitre plates. Relatively high initial inoculation densities are used, in order to permit measurement of “time-zero” values and to enhance the screen's ability to detect and provide some differentiation between antiproliferative and cytotoxic response parameters. […] The inoculated microtitre plates are pre-incubated for 24 hours at 37θC prior to drug additions. The five drug dilutions tested routinely range from 10^−4 to 10^−8 molar. Higher or lower concentration ranges may be selected on a nonroutine basis if appropriate solubility and/or prior biological information or other screening data so dictate. Duplicate wells are prepared for all concentrations, (concentration is often denoted by placing brackets around a number); “time-zero” and “no drug” controls are also provided for each test. The minimum amount of compound required for a one-time evaluation in the routine screen can be calculated from the knowledge that each test requires a total of approximately 40 ml (0.04 liter) of cell culture medium containing the highest desired drug concentration. Thus, the amount (grams) of sample required (assuming an upper test concentration limit of 10^−4 M) is: molecular weight of compound×[…]. After a 48 hour incubation (37θC) with the test compound, the cells are fixed in situ to the bottoms of the microtitre wells by addition of 50 ul of either 50% trichloroacetic acid (for adherent cell lines) or 80% trichloroacetic acid (for settled cell suspension lines), followed by incubation for 60 minutes at 4θC. The cellular protein in each well is assayed using a sulforhodamine B (SRB) stain procedure. Briefly, after discarding the supernatants, the microtitre plates are washed 5 times with deionized water and air-dried. One hundred microliters of SRB solution (0.4% w/v in 1% acetic acid) is added to each microtitre well and incubated for 10 minutes at room temperature. Unbound SRB is removed by washing 5 times with 1 % acetic acid. The plates are air-dried, the bound stain is solubilized with Tris buffer, and the optical densities read at 515 nm. SRB is a bright pink anionic dye which, in dilute acetic acid, binds electrostatically to the basic amino acids of TCA-fixed cells. Cryopreserved master stocks of all the lines are maintained, and cultures used for screening are replaced from the master stock after no more than twenty passages in the screening laboratory. The cell line panel consists of 60 lines, organized into nine, disease-related subpanels including leukemia, non-small-cell lung cancer, colon, CNS, melanoma, ovarian, renal, prostate and breast cancers.
(§2) The response parameters G150 and LC50 are interpolated values representing the concentrations at which the percentage growth (PG) is +50 and −50, respectively:
(§3) GI50 is the concentration for which the PG=+50. At this value the increase from time tzero, in the number or mass of cells in the test well is only 50% as much as the corresponding increase in the control well during this period of the experiment, see Table II. A drug effect of this intensity is interpreted as primary growth inhibition.
(§4) TGI is the concentration for which PG=0. At this value the number or mass of cells in the well at the end of the experiment equals the number or mass of cells in the well at time tzero, see Table III. A drug effect of this intensity is regarded as cytostasis.
(§5) LC50 is the concentration for which the PG=−50. At this value, the number or mass of cells in the test well at the end of the experiment is half that at time tzero, see Table IV. This is interpreted as cytotoxicity.

MOLT-4 = details: for Log10TGI: PG=0; for drug concentration for cytotoxicity (percentage growth −50): human, 48 h
Experimental: as §1, §2, §3, §4, §5

HS 578T = experiment: NCI 60 cell line screen (SRB), Breast Cancer; assay type: cell-based; details: PG=+50
OVCAR-3 = experiment: NCI 60 cell line screen (SRB), Ovarian Cancer; assay type: cell-based; details: PG=0
NCI/ADR-RES = experiment: NCI 60 cell line screen (SRB), Breast Cancer; assay type: cell-based
[1] = Table IV (LC50, PG=−50), MOLT−4

SMILES	Log10TGI (MDA-MB231/ATCC) [log10M]	Log10GI50 (MDA-MB-435; MDA-MB−435, PG=+50) [log10M]	Log10TGI (SNB-19) [log10M]	Log10GI50 (A498; PG=+50) [log10M]	Log10GI50 (A498; Table IV (LC50, PG=−50)) [log10M]	Log10GI50 (NCI-H322M) [log10M]	Log10TGI (UACC-62) [log10M]	Log10GI50 (UACC-62; PG=+50) [log10M]	Log10GI50 (UACC-62; Table IV (LC50, PG=−50)) [log10M]	Log10GI50 (SN12C; SNI2C, PG=+50) [log10M]	Log10GI50 (SN12C; Table IV (LC50, PG=−50), SN12C) [log10M]	Log10GI50 (MCF7; PG=+50) [log10M]	Log10GI50 (MCF7; Table IV (LC50, PG=−50)) [log10M]	Log10TGI (K-562) [log10M]	Log10GI50 (K-562; PG=+50) [log10M]	Log10GI50 (K-562; Table IV (LC50, PG=−50)) [log10M]	Log10TGI (SW-620) [log10M]	Log10GI50 (SR; Table IV (LC50, PG=−50)) [log10M]	Range of Log10GI50 (Table IV) (60 cell line panel; Table IV (LC50))	Delta of Log10GI50 (60 cell line panel)	also measured
C[C@@H]1CC[C@H]2[C@@H](C)C(=O)O[C@@H]3O[C@]4(C)CC[C@@H]1[C@]32OO4 [Artemisinin, artemisinin]	−4.00	>−4.00	>−4.00	>−4.00	>−4.00	>−4.00	>−4.00	>−4.00	>−4.00	−4.21	>−4.00	>−4.00	>−4.00	−4.00	−4.33	>−4.00	>−4.00	>−4.00	0.00	−4.07	Log10TGI (MDA-MB-435; MDA-MB-435, PG=0): >−4.00 log10M; Log10GI50 (MDA-MB-435; Table IV (LC50, PG=−50), MDA-MB-435): >−4.00 log10M; Log10TGI (A498; PG=0): >−4.00 log10M; Log10TGI (NCI-H322M; PG=0): >−4.00 log10M; Log10TGI (NCI-H23): >−4.00 log10M; Log10TGI (SN12C; SN12C, PG=0): >−4.00 log10M; Log10TGI (MCF7; PG=0): >−4.00 log10M; Log10TGI (SK-MEL2): >−4.00 log10M; Log10TGI (SR; PG=0): >−4.00 log10M; Log10GI50 (SR; PG=+50): >−4.00 log10M; Delta of Log10GI50 (Table IV) (60 cell line panel; Table IV (LC50)): −4.00; Delta of Log10TGI (60 cell line panel): −4.00; Range of Log10GI50 (60 cell line panel): 0.73; Range of Log10TGI (60 cell line panel): 0.06; Log10GI50 (MOLT-4; MOLT-4, PG=+50): −4.73 log10M; Log10TGI (MOLT-4; MOLT−4): −4.00 log10M; Log10GI50 (MOLT-4; [1]): >−4.00 log10M; drug concentration for cytotoxicity (percentage growth −50) (MOLT-4): greater than 10^−4 M
CC(=O)O[C@H]1C(=O)[C@@]2(C)[C@H]([C@H](OC(=O)c3ccccc3)[C@]3(O)C[C@H](OC(=O)[C@H](O)[C@@H](NC(=O)c4ccccc4)c4ccccc4)C(C)=C1C3(C)C)[C@]1(OC(C)=O)CO[C@@H]1C[C@@H]2O [Paclitaxel, paclitaxel, reference compound]	−4.84	<-13.00	>−4.00	−7.14	−4.13	−10.12	−4.71	−10.46	−4.19	−9.53	>−4.00	−11.69	>−4.00	−10.83	−10.83	>−4.00	>−4.00	>−4.00	4.06	−10.15	Log10GI50 (HS 578T): <-13.00 log10M; Log10TGI (OVCAR-3): −4.55 log10M; Log10GI50 (SW-620; PG=+50): −11.60 log10M; Delta of Log10TGI (60 cell line panel): −4.54; Range of Log10GI50 (60 cell line panel): 8.00; Range of Log10TGI (60 cell line panel): 7.20; Log10GI50 (MOLT-4; MOLT-4, PG=+50): −11.07 log10M; Log10TGI (MOLT-4; MOLT−4): −11.07 log10M; Log10GI50 (MOLT-4; [1]): >−4.00 log10M; drug concentration for cytotoxicity (percentage growth −50) (MOLT-4): greater than 10^−4 M; Log10TGI (NCI/ADR-RES; PG=0): >−4.00 log10M; Log10GI50 (NCI/ADR-RES; PG=+50): −8.48 log10M; Log10GI50 (NCI/ADR-RES; Table IV (LC50, PG=−50)): >−4.00 log10M
